Source: US20240117431A1, “STEM-CELL BASED BIOMARKER DISCOVERY” (THE REGENTS OF THE UNIVERSITY OF CALIFORNIA, priority 2020, published 2024)

System: HEK cells
Assay: Trypan blue cell viability / proliferation
Assay type: cell-based
Conditions: triple mutant TgUPRT + 5VU 200 μM, 5, 16, 24h, versus untreated cells, FIG. 11
Protocol: Equal amount HEK cells (2×10^5) were seeded in a 6-well plate with 2 mL media. Twenty-four hour […], HEK cells were transfected with 1 μg empty plasmid (No GFP nor TgUPRT), double (2×MT) or triple (3×MT) TgUPRT mutants. 5VU was added to cells at 200 μM final concentration for 5, 16 and 24h treatment so that by the time cells were assayed with Trypan blue, they underwent 48h post transfection. DMSO (carrier) treatment (negative control) was done for 24h. Cells were stained with 0.04% Trypan blue for 5 minutes and subjected to cell counting using Countess II FL (Invitrogen, USA). Per condition, counting was done with n=2× biological and 3× technical replicates.

C=Cc1c[nH]c(=O)[nH]c1=O [compound 2, 5-Vinylpyrimidine-2,4(1H,3H)-dione]
cell viability, Trypan blue: non-significant differences to untreated cells
